{
  "source": "patent US12721832B2",
  "about": "“Anti-senescence plant polyphenol drug downregulating senescence-related secretory phenotype and use thereof” (BYHEALTH CO., LTD., priority 2021, dated 2026)",
  "key": {"[1]": {"system": "senescent cells in tumor tissue", "experiment": "SA-β-Gal staining of tumor tissue in PC3/PSC27 tumor-bearing mice", "format": "in vivo", "details": "PCC1 administered to MIT-treated animals", "protocol": "Representative pictures after SA-β-Gal staining. Scale bar, 100 μm.\nA P>0.05; **, P<0.01; ***, P<0.001.\n(§1) In a preclinical treatment trial, subcutaneously transplanted mice were fed with a standard experimental diet, after 2 weeks chemotherapy drugs mitoxantrone (MIT, dose: 0.2 mg/kg) and/or procyanidin C1 (PCC1) (500 μl, dose: 10 mg/kg) via intraperitoneal administration. The time points were: the former was administrated on the first day of the 3rd, 5th and 7th weeks, and the latter was administrated on the first day of the 5th and 7th weeks. A total of 3 cycles of MIT administration were carried out throughout the course of treatment, and each cycle lasted for 2 weeks. After the course of treatment, mouse tumors were harvested for volume measurement and histological analysis. Each mouse cumulatively received 0.6 mg/kg body weight of MIT and 30 mg/kg body weight of PCC1. In order to cause systemic expression of SASP factor induced by chemotherapy, MIT was administered to mice through intravenous infusion according to the above steps and sequence, but the dose was reduced to 0.1 mg/kg body weight/each time (the cumulative dose of MIT received in the whole course of treatment was 0.3 mg/kg body weight) to reduce drug-related toxicity. […]"}, "senescent PSC27 cells": {"system": "senescent PSC27 cells", "experiment": "RNA-seq / GSEA expression profile of BLEO-induced senescent PSC27 cells", "format": "cell-based, human", "protocol": "Whole-transcriptome sequencing was performed on the primary human prostate stromal cell line PSC27 under different treatment conditions. Total RNA samples were obtained from stromal cells. Their integrity was verified by Bioanalyzer 2100 (Agilent), RNA was sequenced by Illumina HiSeq X10, and gene expression levels were quantified by software package rsem (https://deweylab.github.io/rsem/). Briefly, rRNA was depleted from RNA samples with the RiboMinus Eukaryote Kit (Qiagen, Valencia, Calif., USA); and according to the manufacturer's instructions, TruSeq Stranded Total RNA Preparation Kits (Illumina, San Diego, Calif.), USA) was used to construct a strand-specific RNA-seq library before deep sequencing.\nPaired-end transcriptomic reads were mapped to a reference genome (GRCh38/hg38), and reference-annotation was performed from Gencode v27 using the Bowtie tool. Duplicate reads were identified using the picard Tools (1.98) script to mark duplicates (https://github.com/broadinstitute/picard), and only non-duplicate reads were retained. Reference splice junctions were provided by reference transcriptome (Ensembl Build 73). FPKM values were calculated with Cufflinks, and Cufflinks maximum likelihood estimation function was used to call differential gene expression. Genes with significant changes in expression were defined by false discovery rate (FDR)-corrected P-values<0.05, and only Ensembl Genes 73 with status “Known” and biotype “coding” were used for downstream analysis.\nNext, Trim Galore (v0.3.0) (http://www.bioinformatics.babraham.ac.uk/projects/trim_galore/) was used to trim the reads, while the quality assessment was carried out by using FastQC (v0.10.0) (http://www.bioinformatics.bb src.ac.uk/projects/fastqc/). Subsequently, a preliminary analysis of the raw data was perform on a free online platform, Majorbio I-Sanger Cloud Platform (www.i-sanger.com), by using DAVID bioinformatics platform (https://david.ncifcrf.gov/) and Ingenuity Pathways Analysis (IPA) program (http://www.ingenuity.com/index.html), the raw data were deposited in the NCBI Gene Expression Omnibus (GEO) database with access code GSE156448.\nBased on the data obtained from the preliminary analysis of RNA-seq, analyzed and compared each differentially expressed significant gene, the genes were sorted using the “wald statistics” obtained from DESeq2, GSEA was performed on the sorting lists of all planning gene sets available in MSigDB (http://software.broadinstitute.org/gsea/msigdb). DESeq2 independent filtering was based on the average of normalized read counts to select genes with very low expression levels. The GSEA signature of SASP was as described in our previous publication (Zhang et al., 2018a)."}, "PSC27 cells": {"system": "PSC27 cells", "experiment": "Flow cytometry of apoptosis of PSC27", "format": "cell-based, human", "text": "Q2, distribution area of early apoptotic cells; Q3, distribution area of late apoptotic cells."}, "aged C57BL/6 mice": {"system": "aged C57BL/6 mice", "experiment": "Post-mortem pathological examination of aged mice", "format": "in vivo", "details": "end of life", "protocol": "The researchers checked the cages daily and removed dead mice from the cages. Within 24 hours of animal death, cadavers (abdominal cavity, thoracic cavity, and skull) were opened and kept separately in 10% formalin for at least 7 days. Decomposed or destroyed bodies were excluded. The preserved cadavers were transported to the dedicated autopsy site for pathological examination. Tumor burden (sum of different types of tumors per mouse), disease burden (sum of different histopathological changes in major organs per mouse), severity of each lesion and inflammation (lymphocyte infiltration) were assessed."}, "SASP factors": {"system": "SASP factors", "experiment": "LCM and qRT-PCR of SASP factors in mouse lesions", "format": "in vivo, mice", "details": "MIT/PCC1 vs MIT, stromal cells", "protocol": "The stromal cells and cancer cells were specifically separated by LCM technology, total RNA was prepared and used for SASP expression detection. A P>0.05; *, P<0.05; **, P<0.01; ***, P<0.001.\nas §1"}, "[2]": {"system": "PC3/PSC27 xenograft tumors", "experiment": "PC3/PSC27 xenograft tumor terminal volume in NOD/SCID mice", "format": "in vivo", "details": "end of 8th week", "text": "Every two weeks was a dosing cycle, and MIT (mitoxantrone) was intraperitoneally administered to the mice on the first day of the 3rd/5th/7th weeks. From the first day of the 5th week, the mice were intraperitoneally administrated with PCC1, once a week. After the 8-week course of treatment, the mice were dissected for pathological identification and expression analysis.\nChemotherapeutic drug MIT alone or together with anti-senescence drug PCC1 was used to administer mice, and after the 8th week, the tumor size of each group was compared and analyzed.\nAll experimental mouse experiments were carried out in strict accordance with the relevant regulations of the Institutional Animal Care and Use Committee (IACUC), Shanghai Institutes for Biological Sciences, Chinese Academy of Sciences. Immunodeficient mice (NOD-SCID mice, ICR) (body weight about 25 g) aged 6-8 weeks were used for animal experiments related to the present patent. Stromal cells PSC27 and epithelial cells PC3 were mixed at a predetermined ratio of 1:4, and each graft contained 1.25×10^6 cells for tissue remodeling. The xenograft tumors were implanted into mice by subcutaneous transplantation, and the animals were euthanized 8 weeks after the end of the transplantation surgery. Tumor volume was calculated according to the following formula: V=(π/6)×[…] (V, volume; l, length; w, width).\nIn a preclinical treatment trial, subcutaneously transplanted mice were fed with a standard experimental diet, after 2 weeks chemotherapy drugs mitoxantrone (MIT, dose: 0.2 mg/kg) and/or procyanidin C1 (PCC1) (500 μl, dose: 10 mg/kg) via intraperitoneal administration. The time points were: the former was administrated on the first day of the 3rd, 5th and 7th weeks, and the latter was administrated on the first day of the 5th and 7th weeks. A total of 3 cycles of MIT administration were carried out throughout the course of treatment, and each cycle lasted for 2 weeks. After the course of treatment, mouse tumors were harvested for volume measurement and histological analysis. Each mouse cumulatively received 0.6 mg/kg body weight of MIT and […] body weight of PCC1. In order to cause systemic expression of SASP factor induced by chemotherapy, MIT was administered to mice through […] according to the above steps and sequence, but the dose was reduced to 0.1 mg/kg body weight/each time (the cumulative dose of MIT received in the whole course of treatment was 0.3 mg/kg body weight) to reduce drug-related toxicity. The chemotherapy experiment ended at the end of the 8th week, and the mice were dissected immediately after sacrifice, and the xenograft tumors were collected and used for pathological system analysis."}, "[3]": {"details": "BLEO/PCC1 vs BLEO group, fold change 2.0, P<0.01"}, "[4]": {"details": "PCC1 administered to mice treated with MIT"}},
  "data": [
    {"smiles": "Oc1cc(O)c2c(c1)O[C@H](c1ccc(O)c(O)c1)[C@H](O)[C@H]2c1c(O)cc(O)c2c1O[C@H](c1ccc(O)c(O)c1)[C@H](O)[C@H]2c1c(O)cc(O)c2c1O[C@H](c1ccc(O)c(O)c1)[C@H](O)C2", "note": "[PCC1, procyanidin C1]", "values": [
      {"measurement": "senescent cells within lesions of chemotherapeutic (MIT) animals", "setting": "[1]", "value": "substantially depleted most senescent cells"},
      {"measurement": "number of genes significantly down-regulated", "setting": "senescent PSC27 cells; [3]", "value": 4406, "unit": "genes"},
      {"measurement": "number of genes up-regulated", "setting": "senescent PSC27 cells; [3]", "value": 2766, "unit": "genes"},
      {"measurement": "expression of SASP factors in senescent cells after treatment", "setting": "senescent PSC27 cells; RNA-seq heatmap", "value": "generally decreased"},
      {"measurement": "GSEA molecular signatures of SASP expression or NF-κB activation", "setting": "senescent PSC27 cells; senescent cells after PCC1", "value": "significant repression"},
      {"measurement": "change of proliferating cells", "setting": "PSC27 cells", "value": "not obvious"},
      {"measurement": "proportion of apoptosis in senescent PSC27 cells", "setting": "PSC27 cells", "value": "significantly increased"},
      {"measurement": "viability of senescent PSC27 cells", "setting": "PSC27 cells", "value": "significantly reduced"},
      {"measurement": "prevalence of several age-related diseases and tumor burden at autopsy vs vehicle", "setting": "aged C57BL/6 mice", "value": "did not show statistical differences"},
      {"measurement": "MIT-induced SASP expression change upon PCC1", "setting": "SASP factors", "value": "largely reversed"},
      {"measurement": "reduction in tumor volume compared with MIT", "setting": "[2]; [4]", "value": 55.2, "unit": "%"},
      {"measurement": "reduction in tumor volume compared with placebo treatment", "setting": "[2]; [4]", "value": 74.9, "unit": "%"},
      {"measurement": "reduction in tumor size compared to placebo", "setting": "[2]; single agent, i.p.", "value": "did not cause tumor shrinkage"}
    ]}
  ]
}
